Tests used:
[1] = tested on: WRL-68 cells; assay: Neutral red cell viability assay; assay type: cell-based, human; details: SIN up to 1,000 μM, 72 hours
Source text: The neutral red (NR) cytotoxicity assay is a chemosensitivity assay for measuring cell survival/viability, based on the ability of viable cells to incorporate and bind neutral red, a supravital dye. NR is a weak cationic dye that readily penetrates cell membranes by non-ionic diffusion, accumulating intracellularly in lysosomes, where it binds with anionic sites in the lysosomal matrix. Alterations of the cell surface or the sensitive lysosomal membrane lead to lysosomal fragility and other changes that gradually become irreversible. Such changes brought about by the action of xenobiotics result in a decreased uptake and binding of NR. It is thus possible to distinguish between viable, damaged, or dead cells. (Babich, H et al, 1990)
Three different cell lines HepG2, WRL-68 and Clone 9 cell lines were used in the experiment. HepG2 is a human hepatoblastoma cell line. It is a well known cell model in anti-HCC studies (Alshatwi A A, et al, 2006). WRL-68 is a human normal liver embryo cell line that has a morphologic structure similar to hepatocytes and hepatic primary cultures (Gutierrez-Ruiz, et al, 1994). This cell line was used as the control. Clone 9 is the rat Sprague Dawley (SD) liver normal cell line. […]
HepG2, WRL-68 and Clone 9 cells were grown in complete culture medium (RPMI or DMEM), trypsinized and washed. […] The color was measured at OD540nm.

[2] = tested on: rats previously treated with dimethylhydrazine (DMH); details: cited from earlier work
[3] = tested on: Sprague Dawley (SD) rats; assay: Histological analysis and GST-p immunostaining of liver, progression stage; assay type: in vivo, rat
Protocol: The liver samples were fixed with 10% formaldehyde and put in cassettes for dehydration and fixed with wax. Subsequently, liver samples were embedded in the solidified wax and sliced to 5 μm thickness with a microtome machine. Sliced samples were mounted onto Superfrost microscope slides for further studies.
Slides with liver sections were placed on a slide holder, dewaxed and rehydrated with xylene (3 times, each time 5 minutes), 100% ethanol (3 times, each time 3 minutes), 95% ethanol (3 minutes), 80% ethanol (3 minutes) and distilled water (5 minutes) in order. Slides were then immersed into hematoxylin for about 3 minutes, and the color was allowed to develop for several minutes in water, followed by brief destaining with acid ethanol and water. Slides were immersed into eosin for about 30 seconds to stain the cytoplasm red, followed by washing in tap water for several minutes. Slide-checking was necessary to assure the best staining effect. Slides were then dehydrated with 95% ethanol (3 minutes), 100% ethanol (3 times, each time 5 minutes), and xylene (3 times, each time 5 minutes), in order. Finally, the slides were mounted with coverslips and allowed to dry. […]
The images were checked and captured by an Axiophot-2 Universal microscope (Zeiss) connected with computer for documentation. The image was recorded by Spot 32 image capture software (Diagnostic Instruments). […]

C=CC/C(=N/OS(=O)(=O)[O-])S[C@@H]1OC(CO)[C@@H](O)C(O)C1O.[K+] (some centres unmarked) [SIN, sinigrin]
cell viability of WRL-68 cells (healthy liver cells) [1]: no decrease in cell viability was observed | apoptosis in colonic tissue vs DMH only ([2]; DMH treated rats): higher level of apoptosis | aberrant crypt foci in colonic tissue ([2]; sinigrin administered after DMH): suppresses induction of aberrant crypt foci | hepatocyte structure in liver sections (H&E) ([3]; 15 mg/kg oral daily): the basic structure was restored without abnormal appearance | GST-p positive area / whole section area ([3]; positive control about 30%): less than 10%

From patent publication US20100120703A1, “COMPOSITIONS AND METHODS FOR TREATING CANCER” (priority 2007, published 2010)
